Laboratory results taken from the supplement of paper PMC10307832.

Columns and labels:
Assay in all cases: relative viability (nuclei count vs DMSO), 5 days (fraction); higher = more cells survive
[1] = compound: CC1=CC=C(C=C1)C(=O)CN2C3=C(CCCC3)SC2=N [Pifithrin_alpha] + CC(C)C[C@H](NC(=O)[C@H](Cc1ccccc1)NC(=O)c1cnccn1)B(O)O [Bortezomib] (partner 0.002 µM)
How it was run: (§1)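 Lung cancer cell lines, seeded in 1536-well plates, were treated the following day by pin tool with a single drug or with five library-drug doses (not always all listed) in √10 steps on top of a fixed anchor-drug dose. Cells were fixed and nuclei stained in one step after 5 days, and nuclei were counted. Relative viability is the nuclei count for treated wells divided by that for vehicle wells, reported as medians of duplicate plates.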

[2] = compound: CC1=CC=C(C=C1)C(=O)CN2C3=C(CCCC3)SC2=N [Pifithrin_alpha] + Cc1cc(Nc2cc(N3CCN(C)CC3)nc(Sc3ccc(NC(=O)C4CC4)cc3)n2)n[nH]1 [Tozasertib] (partner 0.1 µM)
How it was run: as §1

[3] = compound: CNC(=O)c1ccccc1Sc1ccc2c(/C=C/c3ccccn3)n[nH]c2c1 [Axitinib] + N=C(N)NC(=N)NCCc1ccccc1 [Phenformin] (partner 250 µM)
How it was run: as §1

[4] = compound: CNC(=O)c1ccccc1Sc1ccc2c(/C=C/c3ccccn3)n[nH]c2c1 [Axitinib] + Nc1ncn([C@H]2C[C@H](O)[C@@H](CO)O2)c(=O)n1 [Decitabine] (partner 2 µM)
How it was run: as §1

| Cell Line | relative viability ([1]; first compound 1 µM) | relative viability ([1]; first compound 3.162 µM) | relative viability ([1]; first compound 10 µM) | relative viability ([1]; first compound 31.62 µM) | relative viability ([1]; first compound 100 µM) | relative viability ([2]; first compound 3.162 µM) | relative viability ([2]; first compound 10 µM) | relative viability ([2]; first compound 100 µM) | relative viability ([3]; first compound 0.005 µM) | relative viability ([3]; first compound 0.01581 µM) | relative viability ([3]; first compound 0.05 µM) | relative viability ([3]; first compound 0.1581 µM) | relative viability ([3]; first compound 0.5 µM) | relative viability ([4]; first compound 0.005 µM) | relative viability ([4]; first compound 0.01581 µM) | relative viability ([4]; first compound 0.05 µM) | relative viability ([4]; first compound 0.1581 µM) | relative viability ([4]; first compound 0.5 µM) | relative viability ([2]; first compound 1 µM) | relative viability ([2]; first compound 31.62 µM) |
| --- | --- | --- | --- | --- | --- | --- | --- | --- | --- | --- | --- | --- | --- | --- | --- | --- | --- | --- | --- | --- |
| LC-2-ad | 0.892 | 1.04 | 0.976 | 0.767 | 0.768 | 0.357 | 0.379 | 0.311 | 0.578 | 0.592 | 0.586 | 0.527 | 0.498 | 0.829 | 0.776 | 0.855 | 0.804 | 0.779 |  |  |
| LCLC-97TM1 |  | 0.596 | 0.397 |  | 0.487 | 0.178 | 0.177 | 0.217 | 0.458 | 0.381 | 0.43 | 0.47 | 0.314 | 0.193 | 0.275 | 0.266 | 0.247 | 0.234 | 0.293 | 0.148 |
| LCLC-103H | 1.12 | 1.08 | 0.902 | 0.831 | 1.25 | 0.452 | 0.485 | 0.46 | 0.32 | 0.341 | 0.345 | 0.356 | 0.312 | 0.738 | 0.719 | 0.738 | 0.801 | 0.797 | 0.462 | 0.396 |
| LOU-NH91 | 0.409 | 0.475 | 0.445 | 0.414 | 0.503 | 0.612 | 0.637 | 0.578 | 0.763 | 0.523 | 0.875 | 0.684 | 0.695 | 0.852 | 0.645 | 0.813 | 0.749 | 0.851 | 0.663 | 0.543 |
| LU99A | 1.09 | 1.24 | 1.19 |  | 1.24 | 0.259 | 0.31 | 0.25 | 0.784 | 0.823 | 0.981 | 0.88 | 0.91 | 0.719 | 0.987 | 0.761 | 0.905 | 0.857 | 0.304 | 0.286 |
| LXF-289 | 1.01 | 1.01 | 1.02 | 0.813 | 0.962 | 0.172 | 0.174 | 0.14 | 0.534 | 0.518 | 0.526 | 0.508 | 0.516 | 0.388 | 0.398 | 0.353 | 0.362 | 0.395 | 0.209 | 0.147 |
| NCI-H23 | 0.917 | 0.978 | 1.06 | 0.61 | 0.875 | 0.299 | 0.316 | 0.258 | 0.577 | 0.842 | 0.857 | 0.708 | 0.847 | 0.327 | 0.311 | 0.346 | 0.299 | 0.325 | 0.304 |  |
| NCI-H322M | 1.19 | 1.07 | 1.29 | 1.26 | 1.03 | 0.483 | 0.493 | 0.486 | 0.886 | 0.754 | 0.812 | 0.712 | 0.989 | 0.715 | 0.667 | 0.673 | 0.675 | 0.686 | 0.51 | 0.449 |
| NCI-H441 | 0.245 | 0.821 | 0.442 | 0.448 | 0.503 | 0.652 | 0.401 | 0.451 | 0.929 | 0.803 | 0.882 | 0.76 | 0.834 | 0.233 | 0.217 | 0.253 | 0.21 | 0.27 | 0.483 |  |
| NCI-H460 | 1.51 | 1.14 | 0.661 |  | 0.438 | 0.485 | 0.0522 | 0.126 | 0.553 | 0.515 | 0.583 | 0.518 | 0.678 | 0.585 | 0.464 | 0.528 | 0.535 | 0.585 | 0.397 | 0.0525 |
| NCI-H520 | 0.64 | 0.771 | 0.567 | 0.386 | 0.739 | 0.438 | 0.364 | 0.421 | 0.489 | 0.404 | 0.655 | 0.362 | 0.386 | 0.527 | 0.422 | 0.509 | 0.449 | 0.481 | 0.446 |  |
| NCI-H596 | 0.969 | 1.1 | 1.23 | 1.03 | 1.06 | 0.871 | 0.977 | 0.915 | 0.735 | 0.784 | 0.841 | 0.746 | 0.638 | 1.15 | 0.976 | 1.32 | 0.935 | 1.07 | 0.79 | 0.705 |
| NCI-H647 | 0.992 | 0.966 | 0.706 |  | 0.736 | 0.382 | 0.288 | 0.145 | 0.663 | 0.498 | 0.558 | 0.504 | 0.893 | 0.262 | 0.378 | 0.457 | 0.348 | 0.495 | 0.339 | 0.188 |
| NCI-H661 | 0.784 | 0.82 | 0.909 | 0.925 | 1.02 | 0.354 | 0.358 | 0.346 | 0.281 | 0.29 | 0.271 | 0.267 | 0.285 | 0.594 | 0.503 | 0.588 | 0.549 | 0.597 | 0.359 | 0.355 |
| NCI-H727 | 0.786 | 0.958 | 0.696 | 0.446 | 0.793 | 0.657 | 0.52 | 0.579 | 0.7 | 0.519 | 0.589 | 0.536 | 0.728 | 0.962 | 0.842 | 0.835 | 1.01 | 0.837 | 0.505 |  |
| NCI-H838 | 0.786 | 0.628 | 0.599 | 0.626 | 0.62 | 0.24 | 0.237 | 0.208 | 0.697 | 0.509 | 0.763 | 0.564 | 0.654 | 0.503 | 0.492 | 0.433 | 0.487 | 0.475 | 0.265 | 0.222 |
